SMILES strings stand for the structures. Where a SMILES comes first, the peptide text is derived from it. [ ]: non-standard residue; d: D form. The star is where a group is joined. dPhe(3-Cl) = N[C@H](Cc1cccc(Cl)c1)C(=O)O; X2 = NC(=O)COCC(=O)NCCCOCCOCCOCCCN*; Cha = N[C@@H](CC1CCCCC1)C(=O)O; d2Thi = N[C@H](Cc1cccs1)C(=O)O; Nle = CCCC[C@H](N)C(=O)O; NHIsopentyl = CC(C)CCN*

This series in a line: Pharmacokinetics in rats after intravenous bolus injection (systemic clearance). Format: in vivo. The following applies: rat, plasma, 0.2 mg FB/kg, adult male Sprague-Dawley rats, i.v. bolus, dose 0.20 mg FB/kg, read-out: CL (ml/kg/min) Average. The procedure, abridged: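 Adult male Sprague-Dawley rats (3-4, doubly cannulated) given IV jugular bolus at 0.1-1.0 mg/kg; serial carotid blood to K2EDTA plasma, LC/MS/MS quantitation. CL = dose/kg divided by AUC∞ (noncompartmental, trapezoid); mean ± SD.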
Take `CCCC[C@H](NC(=O)[C@H](CCC(=O)O)NC(=O)[C@H](CC(=O)O)NC(=O)[C@H](CO)NC(=O)[C@H](Cc1ccccc1)NC(=O)[C@H](CO)NC(=O)CNC(=O)[C@H](CC(=O)O)NC(=O)CNC(=O)[C@@H](N)Cc1c[nH]cn1)C(=O)N[C@H](Cc1cccs1)C(=O)N[C@H](C(=O)N[C@H](C(=O)N[C@@H](CC(C)C)C(=O)N[C@@H](CC(=O)O)C(=O)N[C@@H](CC(C)C)C(=O)N[C@@H](CC(C)C)C(=O)N[C@@H](C)C(=O)N[C@@H](C)C(=O)N[C@@H](CCCNC(=N)N)C(=O)N[C@@H](CC(=O)O)C(=O)N[C@@H](Cc1ccccc1)C(=O)N[C@H](C(=O)N[C@@H](CC(N)=O)C(=O)N[C@@H](Cc1c[nH]c2ccccc12)C(=O)N[C@@H](CC(C)C)C(=O)N[C@H](C(=O)N[C@@H](CCC(N)=O)C(=O)N[C@H](C(=O)N[C@@H](CCCCN)C(N)=O)[C@@H](C)O)[C@@H](C)CC)[C@@H](C)CC)[C@@H](C)CC)[C@@H](C)O` [Compound 45, [Gly2,Nle10,D-Thi11,Leu16] hGLP-2 (1-30)-NH2] (H-HGDGSFSDE[Nle][d2Thi]TILDLLAARDFINWLIQTK-NH2): the clearance was 0.33 mL/kg/min.

In the case of `CCCC[C@H](NC(=O)[C@H](CCC(=O)O)NC(=O)[C@H](CC(=O)O)NC(=O)[C@H](CO)NC(=O)[C@H](Cc1ccccc1)NC(=O)[C@H](CO)NC(=O)CNC(=O)[C@H](CC(=O)O)NC(=O)CNC(=O)[C@@H](N)Cc1cnc[nH]1)C(=O)N[C@H](Cc1ccccc1)C(=O)N[C@H](C(=O)N[C@H](C(=O)N[C@@H](CC(C)C)C(=O)N[C@@H](CC(=O)O)C(=O)N[C@@H](CC(N)=O)C(=O)N[C@@H](CC(C)C)C(=O)N[C@@H](C)C(=O)N[C@@H](C)C(=O)N[C@@H](CCCNC(=N)N)C(=O)N[C@@H](CC(=O)O)C(=O)N[C@@H](Cc1ccccc1)C(=O)N[C@H](C(=O)N[C@@H](CC(N)=O)C(=O)N[C@@H](Cc1c[nH]c2ccccc12)C(=O)N[C@@H](CC(C)C)C(=O)N[C@H](C(=O)N[C@@H](CCC(N)=O)C(=O)N[C@H](C(=O)N[C@@H](CCCCN)C(N)=O)[C@@H](C)O)[C@@H](C)CC)[C@@H](C)CC)[C@@H](C)CC)[C@@H](C)O` [Compound 13, [Gly2,Nle10,D-Phe11] hGLP-2 (1-30)-NH2] (H-HGDGSFSDE[Nle][dF]TILDNLAARDFINWLIQTK-NH2), the clearance came to 1.2 mL/kg/min.

For the compound `CCCC[C@H](NC(=O)[C@H](CCC(=O)O)NC(=O)[C@H](CC(=O)O)NC(=O)[C@H](CO)NC(=O)[C@H](Cc1ccccc1)NC(=O)[C@H](CO)NC(=O)CNC(=O)[C@H](CC(=O)O)NC(=O)CNC(=O)[C@@H](N)Cc1c[nH]cn1)C(=O)N[C@H](Cc1ccccc1)C(=O)N[C@H](C(=O)N[C@H](C(=O)N[C@@H](CC(C)C)C(=O)N[C@@H](CC(=O)O)C(=O)N[C@@H](Cc1ccccc1)C(=O)N[C@@H](CC(C)C)C(=O)N[C@@H](C)C(=O)N[C@@H](C)C(=O)N[C@@H](CCCNC(=N)N)C(=O)N[C@@H](CC(=O)O)C(=O)N[C@@H](Cc1ccccc1)C(=O)N[C@H](C(=O)N[C@@H](CC(N)=O)C(=O)N[C@@H](Cc1c[nH]c2ccccc12)C(=O)N[C@@H](CC(C)C)C(=O)N[C@H](C(=O)N[C@@H](CCC(N)=O)C(=O)N[C@H](C(=O)N[C@@H](CCCCN)C(=O)N[C@H](C(=O)N[C@H](C(=O)N[C@@H](CC(=O)O)C(=O)NCCCOCCOCCOCCCNC(=O)COCC(N)=O)[C@@H](C)O)[C@@H](C)CC)[C@@H](C)O)[C@@H](C)CC)[C@@H](C)CC)[C@@H](C)CC)[C@@H](C)O` [Compound 60, [Gly2,Nle10,D-Phe11,Phe16] hGLP-2(1-33)-NH—CH2—((CH2)2O)3—(CH2)3—NH—C(O)—CH2—O—CH2—C(O)—NH2] (H-HGDGSFSDE[Nle][dF]TILDFLAARDFINWLIQTKITD-X2), the clearance was found to be 0.29 mL/kg/min.

Consider `CCCC[C@H](NC(=O)[C@H](CCC(=O)O)NC(=O)[C@H](CC(=O)O)NC(=O)[C@H](CO)NC(=O)[C@H](Cc1ccccc1)NC(=O)[C@H](CO)NC(=O)CNC(=O)[C@H](CC(=O)O)NC(=O)CNC(=O)[C@@H](N)Cc1cnc[nH]1)C(=O)N[C@@H](CC(N)=O)C(=O)N[C@H](C(=O)N[C@H](C(=O)N[C@@H](CC(C)C)C(=O)N[C@@H](CC(=O)O)C(=O)N[C@@H](CC1CCCCC1)C(=O)N[C@@H](CC(C)C)C(=O)N[C@@H](C)C(=O)N[C@@H](C)C(=O)N[C@@H](CCCNC(=N)N)C(=O)N[C@@H](CC(=O)O)C(=O)N[C@@H](Cc1ccccc1)C(=O)N[C@H](C(=O)N[C@@H](CC(N)=O)C(=O)N[C@@H](Cc1c[nH]c2ccccc12)C(=O)N[C@@H](CC(C)C)C(=O)N[C@H](C(=O)N[C@@H](CCC(N)=O)C(=O)N[C@H](C(=O)N[C@@H](CCCCN)C(N)=O)[C@@H](C)O)[C@@H](C)CC)[C@@H](C)CC)[C@@H](C)CC)[C@@H](C)O` [Compound 23, [Gly2,Nle10,Cha16] hGLP-2 (1-30)-NH2] (H-HGDGSFSDE[Nle]NTILD[Cha]LAARDFINWLIQTK-NH2), for which the clearance came to 0.41 mL/kg/min.

As for `CCCC[C@H](NC(=O)[C@H](CCC(=O)O)NC(=O)[C@H](CC(=O)O)NC(=O)[C@H](CO)NC(=O)[C@H](Cc1ccccc1)NC(=O)[C@H](CO)NC(=O)CNC(=O)[C@H](CC(=O)O)NC(=O)CNC(=O)[C@@H](N)Cc1c[nH]cn1)C(=O)N[C@H](Cc1cccc(Cl)c1)C(=O)N[C@H](C(=O)N[C@H](C(=O)N[C@@H](CC(C)C)C(=O)N[C@@H](CC(=O)O)C(=O)N[C@@H](CC(N)=O)C(=O)N[C@@H](CC(C)C)C(=O)N[C@@H](C)C(=O)N[C@@H](C)C(=O)N[C@@H](CCCNC(=N)N)C(=O)N[C@@H](CC(=O)O)C(=O)N[C@@H](Cc1ccccc1)C(=O)N[C@H](C(=O)N[C@@H](CC(N)=O)C(=O)N[C@@H](Cc1c[nH]c2ccccc12)C(=O)N[C@@H](CC(C)C)C(=O)N[C@H](C(=O)N[C@@H](CCC(N)=O)C(=O)N[C@H](C(=O)N[C@@H](CCCCN)C(N)=O)[C@@H](C)O)[C@@H](C)CC)[C@@H](C)CC)[C@@H](C)CC)[C@@H](C)O` [Compound 44, [Gly2,Nle10,D-3-Cpa11] hGLP-2 (1-30)-NH2] (H-HGDGSFSDE[Nle][dPhe(3-Cl)]TILDNLAARDFINWLIQTK-NH2), the clearance worked out at 0.32 mL/kg/min.

`CCCC[C@H](NC(=O)[C@H](CCC(=O)O)NC(=O)[C@H](CC(=O)O)NC(=O)[C@H](CO)NC(=O)[C@H](Cc1ccccc1)NC(=O)[C@H](CO)NC(=O)[C@@H](C)NC(=O)[C@H](CC(=O)O)NC(=O)CNC(=O)[C@@H](N)Cc1cnc[nH]1)C(=O)N[C@@H](CC(N)=O)C(=O)N[C@H](C(=O)N[C@H](C(=O)N[C@@H](CC(C)C)C(=O)N[C@@H](CC(=O)O)C(=O)N[C@@H](CC(N)=O)C(=O)N[C@@H](CC(C)C)C(=O)N[C@@H](C)C(=O)N[C@@H](C)C(=O)N[C@@H](CCCNC(=N)N)C(=O)N[C@@H](CC(=O)O)C(=O)N[C@@H](Cc1ccccc1)C(=O)N[C@H](C(=O)N[C@@H](CC(N)=O)C(=O)N[C@@H](Cc1c[nH]c2ccccc12)C(=O)N[C@@H](CC(C)C)C(=O)N[C@H](C(=O)N[C@@H](CCC(N)=O)C(=O)N[C@H](C(=O)N[C@@H](CCCCN)C(N)=O)[C@@H](C)O)[C@@H](C)CC)[C@@H](C)CC)[C@@H](C)CC)[C@@H](C)O` [Compound 1, [Gly2,D-Ala4,Nle10] hGLP-2 (1-30)-NH2] (H-HGD[dA]SFSDE[Nle]NTILDNLAARDFINWLIQTK-NH2): the clearance is 7.1 mL/kg/min.

In the case of `CCCC[C@H](NC(=O)[C@H](CCC(=O)O)NC(=O)[C@H](CC(=O)O)NC(=O)[C@H](CO)NC(=O)[C@H](Cc1ccccc1)NC(=O)[C@H](CO)NC(=O)CNC(=O)[C@H](CC(=O)O)NC(=O)CNC(=O)[C@@H](N)Cc1c[nH]cn1)C(=O)N[C@@H](CC(N)=O)C(=O)N[C@H](C(=O)N[C@H](C(=O)N[C@@H](CC(C)C)C(=O)N[C@@H](CC(=O)O)C(=O)N[C@@H](CC(N)=O)C(=O)N[C@@H](CC(C)C)C(=O)N[C@@H](C)C(=O)N[C@@H](C)C(=O)N[C@@H](CCCNC(=N)N)C(=O)N[C@@H](CC(=O)O)C(=O)N[C@@H](Cc1ccccc1)C(=O)N[C@H](C(=O)N[C@@H](CC(N)=O)C(=O)N[C@@H](Cc1c[nH]c2ccccc12)C(=O)N[C@@H](CC(C)C)C(=O)N[C@H](C(=O)N[C@@H](CCC(N)=O)C(=O)N[C@H](C(=O)N[C@@H](CCCCN)C(=O)NCCC(C)C)[C@@H](C)O)[C@@H](C)CC)[C@@H](C)CC)[C@@H](C)CC)[C@@H](C)O` [Compound 5, [Gly2,Nle10] hGLP-2 (1-30)-NH-i-Am] (H-HGDGSFSDE[Nle]NTILDNLAARDFINWLIQTK-NHIsopentyl), the clearance worked out at 1.2 mL/kg/min.

Consider `CCCC[C@H](NC(=O)[C@H](CCC(=O)O)NC(=O)[C@H](CC(=O)O)NC(=O)[C@H](CO)NC(=O)[C@H](Cc1ccccc1)NC(=O)[C@H](CO)NC(=O)CNC(=O)[C@H](CC(=O)O)NC(=O)CNC(=O)[C@@H](N)Cc1c[nH]cn1)C(=O)N[C@@H](CC(N)=O)C(=O)N[C@H](C(=O)N[C@H](C(=O)N[C@@H](CC(C)C)C(=O)N[C@@H](CC(=O)O)C(=O)N[C@@H](CC(N)=O)C(=O)N[C@@H](CC(C)C)C(=O)N[C@@H](C)C(=O)N[C@@H](C)C(=O)N[C@@H](CCCNC(=N)N)C(=O)N[C@@H](CC(=O)O)C(=O)N[C@@H](Cc1ccccc1)C(=O)N[C@H](C(=O)N[C@@H](CC(N)=O)C(=O)N[C@@H](Cc1c[nH]c2ccccc12)C(=O)N[C@@H](CC(C)C)C(=O)N[C@H](C(=O)N[C@@H](CCC(N)=O)C(=O)N[C@H](C(=O)N[C@@H](CCCCN)C(=O)NCC)[C@@H](C)O)[C@@H](C)CC)[C@@H](C)CC)[C@@H](C)CC)[C@@H](C)O` [Compound 6, [Gly2,Nle10] hGLP-2 (1-30)-NH—Et] (H-HGDGSFSDE[Nle]NTILDNLAARDFINWLIQTK-NHEt), for which the clearance came out at 6.3 mL/kg/min.

The record behind these values is patent US8580918B2, “Peptidic GLP-2 agonists” (Ferring B.V., priority 2009, dated 2013).
